Source: patent publication US12534457B2, “Heteroaryl derivative compounds, and uses thereof” (Voronoi Inc., priority 2021, dated 2026)

test system: Ba/F3 cells expressing EGFR Del19/C797S (EGFR DC); assay: Proliferation inhibitory activity, Ba/F3 cells expressing EGFR Del19/C797S (CellTiter-Glo); type: cell-based; conditions: Mus musculus, BaF3, 72 hours of compound treatment
Summary of the method: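 Viability after 72 h of compound exposure was measured by luminescence (CellTiter-Glo) in Ba/F3 lines transduced with mutant EGFR. Final concentrations spanned 0.2 nM–5 μM over 12 threefold steps. Growth relative to untreated control gave GI50 values; each test was run three times.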

`CCN1C[C@H]2C[C@@H]1CN2C1CCN(c2ccc(Nc3cc(N4OCC[C@@H]4c4ccccc4)ncn3)c(OC)c2)CC1` [Example 116, N-(4-(4-((1R,4R)-5-ethyl-2,5-diazabicyclo[2.2.1]heptan-2-yl)piperidin-1-yl)-2-methoxyphenyl)-6-((R)-3-phenylisoxazolidin-2-yl)pyrimidin-4-amine] and `CCN1CCN(C2CCN(c3ccc(Nc4cc(N5OCC[C@@H]5c5ccccc5)ncn4)c(OC)c3)CC2)CC1` [Example 118, (R)—N-(4-(4-(4-ethylpiperazin-1-yl)piperidin-1-yl)-2-methoxyphenyl)-6-(3-phenylisoxazolidin-2-yl)pyrimidin-4-amine] cannot be ordered by GI50: < 50 nM for the first, < 50 nM for the second.

`CCc1cc(Nc2cc(N3OCC[C@@H]3c3ccccc3)ncn2)ccc1N1CCC(N2CCN(C)CC2)CC1` [Example 117, (R)—N-(3-ethyl-4-(4-(4-methylpiperazin-1-yl)piperidin-1-yl)phenyl)-6-(3-phenylisoxazolidin-2-yl)pyrimidin-4-amine] and `COc1cc(Nc2cc(N3OCC[C@@H]3c3ccccc3)ncn2)ccc1N1CCC(N2CCN(CCO)CC2)CC1` [Example 121, (R)-2-(4-(1-(2-methoxy-4-((6-(3-phenylisoxazolidin-2-yl)pyrimidin-4-yl)amino)phenyl)piperidin-4-yl)piperazin-1-yl)ethan-1-ol] cannot be ordered by GI50: < 50 nM for the first, < 50 nM for the second.

`COc1cc(N2CCC(N(C)C)CC2)ccc1Nc1cc(N2OCC[C@@H]2c2ccccc2)ncn1` [Example 119, (R)—N-(4-(4-(dimethylamino)piperidin-1-yl)-2-methoxyphenyl)-6-(3-phenylisoxazolidin-2-yl)pyrimidin-4-amine] and `CN(C)C1CCN(c2ccc(Nc3cc(N4OCC[C@@H]4c4ccccc4)ncn3)cc2)CC1` [Example 127, (R)—N-(4-(4-(dimethylamino)piperidin-1-yl)phenyl)-6-(3-phenylisoxazolidin-2-yl)pyrimidin-4-amine] cannot be ordered by GI50: < 50 nM for the first, < 50 nM for the second.

First: COc1cc(N2CCC(N3CCOCC3)CC2)ccc1Nc1cc(N2OCC[C@@H]2c2ccccc2)ncn1 [Example 120, (R)—N-(2-methoxy-4-(4-morpholinopiperidin-1-yl)phenyl)-6-(3-phenylisoxazolidin-2-yl)pyrimidin-4-amine]
Second: COc1cc(N2CCC(N3CCN(C)CC3)CC2)ccc1Nc1cc(N2OCC[C@@H]2c2cccc(N(C)C)c2)ncn1 [Example 131, (R)-6-(3-(3-(dimethylamino)phenyl)isoxazolidin-2-yl)-N-(2-methoxy-4-(4-(4-methylpiperazin-1-yl)piperidin-1-yl)phenyl)pyrimidin-4-amine]
The GI50 of the first is lower: < 50 nM for the first, 50 to 500 nM for the second.

`CC(=O)N1CCN(c2ccc(Nc3cc(N4OCC[C@@H]4c4ccccc4)ncn3)cc2)CC1` [Example 122, (R)-1-(4-(4-((6-(3-phenylisoxazolidin-2-yl)pyrimidin-4-yl)amino)phenyl)piperazin-1-yl)ethan-1-one] and `c1ccc([C@H]2CCON2c2cc(Nc3ccc(N4CCN(C5COC5)CC4)cc3)ncn2)cc1` [Example 124, (R)—N-(4-(4-(oxetan-3-yl)piperazin-1-yl)phenyl)-6-(3-phenylisoxazolidin-2-yl)pyrimidin-4-amine] cannot be ordered by GI50: < 50 nM for the first, < 50 nM for the second.

`CN1CCN(C2CCN(c3c(F)cc(Nc4cc(N5OCC[C@@H]5c5ccccc5)ncn4)cc3F)CC2)CC1` [Example 123, (R)—N-(3,5-difluoro-4-(4-(4-methylpiperazin-1-yl)piperidin-1-yl)phenyl)-6-(3-phenylisoxazolidin-2-yl)pyrimidin-4-amine] and `COc1cc(N2CCC(N3CCN(C)CC3)CC2)c(C2CC2)cc1Nc1cc(N2OCC[C@@H]2c2ccccc2)ncn1` [Example 143, (R)—N-(5-cyclopropyl-2-methoxy-4-(4-(4-methylpiperazin-1-yl)piperidin-1-yl)phenyl)-6-(3-phenylisoxazolidin-2-yl)pyrimidin-4-amine] cannot be ordered by GI50: < 50 nM for the first, < 50 nM for the second.

`COc1cc(Nc2cc(N3OCC[C@@H]3c3cccc(Cl)c3F)ncn2)ccc1N1CCC(N2CCN(C)CC2)CC1` [Example 125, (R)-6-(3-(3-chloro-2-fluorophenyl)isoxazolidin-2-yl)-N-(3-methoxy-4-(4-(4-methylpiperazin-1-yl)piperidin-1-yl)phenyl)pyrimidin-4-amine] and `Cc1cc(Nc2cc(N3OCC[C@@H]3c3cccc(F)c3F)ncn2)ccc1N1CCC(N2CCN(C)CC2)CC1` [Example 126, (R)-6-(3-(2,3-difluorophenyl)isoxazolidin-2-yl)-N-(3-methyl-4-(4-(4-methylpiperazin-1-yl)piperidin-1-yl)phenyl)pyrimidin-4-amine] cannot be ordered by GI50: < 50 nM for the first, < 50 nM for the second.

Compared with `COc1cc(N2CCC(N3CCN(C)CC3)CC2)ccc1Nc1cc(N2OCC[C@@H]2c2ccc(F)c(Cl)c2F)ncn1` [Example 130, (R)-6-(3-(3-chloro-2,4-difluorophenyl)isoxazolidin-2-yl)-N-(2-methoxy-4-(4-(4-methylpiperazin-1-yl)piperidin-1-yl)phenyl)pyrimidin-4-amine], `COc1cc(N2CCC(N3CCN(C)CC3)C(F)C2)ccc1Nc1cc(N2OCC[C@@H]2c2cccc(F)c2F)ncn1` (stereo partly drawn) [Example 140, 6-((R)-3-(2,3-difluorophenyl)isoxazolidin-2-yl)-N-(4-(3-fluoro-4-(4-methylpiperazin-1-yl)piperidin-1-yl)-2-methoxyphenyl)pyrimidin-4-amine] is lower in GI50: 50 to 500 nM for the first, < 50 nM for the second.

First: Cn1cc(Nc2cc(N3OCC[C@@H]3c3ccccc3)ncn2)cn1 [Example 133, (R)—N-(1-methyl-1H-pyrazol-4-yl)-6-(3-phenylisoxazolidin-2-yl)pyrimidin-4-amine]
Second: CN1C2CC1CN(c1ccc(Nc3cc(N4OCC[C@@H]4c4ccccc4)ncn3)cc1)C2 [Example 136, N-(4-(6-methyl-3,6-diazabicyclo[3.1.1]heptan-3-yl)phenyl)-6-((R)-3-phenylisoxazolidin-2-yl)pyrimidin-4-amine]
The GI50 of the first is higher: 50 to 500 nM for the first, < 50 nM for the second.

`CC(C)(C)OC(=O)N1CCc2ccc(Nc3cc(N4OCC[C@@H]4c4ccccc4)ncn3)cc2C1` [Example 134, tert-butyl (R)-7-((6-(3-phenylisoxazolidin-2-yl)pyrimidin-4-yl)amino)-3,4-dihydroisoquinoline-2 (1H)-carboxylate] and `CN1CCN(c2ccc(Nc3cc(N4OCC[C@@H]4c4ccccc4)ncn3)cc2OCC(F)(F)F)CC1` [Example 139, (R)—N-(4-(4-methylpiperazin-1-yl)-3-(2,2,2-trifluoroethoxy)phenyl)-6-(3-phenylisoxazolidin-2-yl)pyrimidin-4-amine] cannot be ordered by GI50: < 50 nM for the first, < 50 nM for the second.

`CN1CCC2(CC1)CCN(c1ccc(Nc3cc(N4OCC[C@@H]4c4ccccc4)ncn3)cc1)CC2` [Example 135, (R)—N-(4-(9-methyl-3,9-diazaspiro[5.5]undecan-3-yl)phenyl)-6-(3-phenylisoxazolidin-2-yl)pyrimidin-4-amine] and `COc1nc(N2CCC(N3CCN(C)CC3)CC2)c(-c2cnn(C)c2)cc1Nc1cc(N2OCC[C@@H]2c2ccccc2)ncn1` [Example 147, (R)—N-(2-methoxy-5-(1-methyl-1H-pyrazol-4-yl)-6-(4-(4-methylpiperazin-1-yl)piperidin-1-yl)pyridin-3-yl)-6-(3-phenylisoxazolidin-2-yl)pyrimidin-4-amine] cannot be ordered by GI50: < 50 nM for the first, < 50 nM for the second.

`COc1cc(C2CCN(C)CC2)ccc1Nc1cc(N2OCC[C@@H]2c2cccc(F)c2F)ncn1` [Example 141, (R)-6-(3-(2,3-difluorophenyl)isoxazolidin-2-yl)-N-(2-methoxy-4-(1-methylpiperidin-4-yl)phenyl)pyrimidin-4-amine] and `COc1cc(N2CCC(N3CCN(C)CC3)CC2)c(C(C)C)cc1Nc1cc(N2OCC[C@@H]2c2cccc(F)c2F)ncn1` [Example 142, (R)-6-(3-(2,3-difluorophenyl)isoxazolidin-2-yl)-N-(5-isopropyl-2-methoxy-4-(4-(4-methylpiperazin-1-yl)piperidin-1-yl)phenyl)pyrimidin-4-amine] cannot be ordered by GI50: < 50 nM for the first, < 50 nM for the second.

`COc1cc(N2CCC(N3CCN(C)CC3)CC2)c(C(C)=O)cc1Nc1cc(N2OCC[C@@H]2c2cccc(F)c2F)ncn1` [Example 145, (R)-1-(5-((6-(3-(2,3-difluorophenyl)isoxazolidin-2-yl)pyrimidin-4-yl)amino)-4-methoxy-2-(4-(4-methylpiperazin-1-yl)piperidin-1-yl)phenyl)ethan-1-one] and `CO/N=C(\C)c1cc(Nc2cc(N3OCC[C@@H]3c3cccc(F)c3F)ncn2)c(OC)cc1N1CCC(N2CCN(C)CC2)CC1` [Example 146, (R,E)-1-(5-((6-(3-(2,3-difluorophenyl)isoxazolidin-2-yl)pyrimidin-4-yl)amino)-4-methoxy-2-(4-(4-methylpiperazin-1-yl)piperidin-1-yl)phenyl)ethan-1-one O-methyl oxime] cannot be ordered by GI50: < 50 nM for the first, < 50 nM for the second.

`COc1cc2c(cc1Nc1cc(N3OCC[C@@H]3c3cc(F)cc(F)c3)ncn1)N(C(=O)C(F)(F)F)CC21CCN(C)CC1` [Example 152, (R)-1-(6-((6-(3-(3,5-difluorophenyl)isoxazolidin-2-yl)pyrimidin-4-yl)amino)-5-methoxy-1′-methylspiro[indolin-3,4′-piperidin]-1-yl)-2,2,2-trifluoroethan-1-one] and `COc1cc2c(cc1Nc1cc(N3OCC[C@@H]3c3cc(F)cc(F)c3)ncn1)NCC21CCN(C)CC1` [Example 154, (R)—N-(6-(3-(3,5-difluorophenyl)isoxazolidin-2-yl)pyrimidin-4-yl)-5-methoxy-1′-methylspiro[indolin-3,4′-piperidin]-6-amine] cannot be ordered by GI50: < 50 nM for the first, < 50 nM for the second.

`CN1CCC(c2ccc(Nc3cc(N4OCC[C@@H]4c4cc(F)cc(F)c4)ncn3)c3c2CCO3)CC1` [Example 155, (R)-6-(3-(3,5-difluorophenyl)isoxazolidin-2-yl)-N-(4-(1-methylpiperidin-4-yl)-2,3-dihydrobenzofuran-7-yl)pyrimidin-4-amine] and `Fc1cc(F)cc([C@H]2CCON2c2cc(Nc3ccc(C4CCNCC4)c4c3OCC4)ncn2)c1` [Example 157, (R)-6-(3-(3,5-difluorophenyl)isoxazolidin-2-yl)-N-(4-(piperidin-4-yl)-2,3-dihydrobenzofuran-7-yl)pyrimidin-4-amine] cannot be ordered by GI50: < 50 nM for the first, < 50 nM for the second.
